Tests used:
[1] = target: human GABAA α2β2γ1 receptor (Homo sapiens (Human), UniProt P47869+Q8N1C3); assay: Radioligand binding assay, [3H]RO7239181 competition, γ1-containing GABAA subtypes; conditions: for γ2/γ1 Selectivity Ratio: Ki α1β3γ2 (nM)/Ki α2β2γ1 (nM); for LogSel: Log[Ki α1β3γ2 (nM)/Ki α2β2γ1 (nM)]
Protocol: The affinity of compounds at GABAA γ1 subunit-containing receptors was measured by competition for [^3H]RO7239181 (67.3 Ci/mmol; Roche) binding to membranes from HEK293F cells (ThermoFisher R79007) expressing human (transiently transfected) receptors of composition α5β2γ1, α2β2γ1, α1β2γ1.
Harvested pellets from HEK293F cells expressing the different GABAA receptor subtypes were resuspended in Mannitol Buffer pH 7.2-7.4 (Mannitol 0.29M, Triethylamine 10 mM, Acetic acid 10 mM, EDTA 1 mM plus protease inhibitors (20 tablets Complete, Roche Diagnostics Cat. No. 05 056 489 001 per liter)), washed two times and then resuspended at 1:10 to 1:15 dilution in the same buffer. Cell disruption was performed by stirring the suspension in a Parr vessel #4637 at 435 psi for 15 minutes, and then the suspensions were centrifuged at 1000×g for 15 minutes at 4° C. (Beckman Avanti J-HC; rotor JS)-4.2). The supernatant (S1) was transferred in a 21 Schott flask and the pellet (P1) was resuspended with Mannitol Buffer up to 175 ml. The resuspended pellet was transferred into a 250 ml Corning centrifugal beaker and centrifuged at 1500×g for 10 minutes at 4° C. (Beckman Avanti J-HC; rotor JS)-4.2). The supernatant (S1) was then transferred in the 21 Schott flask and the pellet was discarded. The supernatants (S1) were centrifuged in 500 ml Beckman polypropylene centrifugal beaker at 15,000×g for 30 minutes at 4° C. (Beckman Avanti J-20 XP; rotor JLA-10.500). The pellet (P2) was resuspended with Mannitol Buffer 1:1 and frozen at −80° C. The supernatant (S2) was centrifuged in 100 ml Beckman polypropylene centrifugal tubes at 48000×g for 50 minutes at […] (Beckman Avanti J-20 XP; rotor JA-18). The supernatant (S3) was discarded and the pellet (P3) was resuspended with 1:1 Mannitol Buffer. The P2 and P3 protein concentration was determined with the BIORAD Standard assay method with bovine serum albumin as standard and measured on the NANO-Drop 1000. The membrane suspension was aliquots (500 μl per tube) and stored at −80° C. until required.
Membrane homogenates were resuspended and polytronised (Polytron PT1200E Kinematica AG) in Potassium Phosphate 10 mM, KCl 100 mM binding buffer at pH 7.4 to a final assay concentration determined with a previous experiment.
Assays were incubated to equilibrium for 1 hour at 4° C. and then, membranes were filtered onto unifilter (96-well white microplate with bonded GF/C filters preincubated 20-50 minutes in 0.3% Polyethylenimine) with a Filtermate 196 harvester (Packard BioScience) and washed 4 times with cold Potassium Phosphate 10 mM pH 7.4, KCl 100 mM binding buffer. After drying, filter-retained radioactivity was detected by liquid scintillation counting. K, values were calculated using Excel-Fit (Microsoft) and are the means of two determinations.

h-GABA-A α2β2γ1 = h-GABA-A α2β2γ1 (Homo sapiens (Human), UniProt P47869+Q8N1C3); assay: Two-electrode voltage clamp electrophysiology in Xenopus oocytes expressing GABAA receptors; type: cell-based; conditions: for potentiation of the GABA-induced current in α2βγ1 GABAA receptor subtype expressing oocytes: reference PAMs, GABA EC20
Protocol: Xenopus laevis oocytes at maturation stages V-VI were used for the expression of cloned mRNA encoding GABAA receptor subunits. Oocytes ready for RNA micro-injection were bought from Ecocyte, Castrop-Rauxel, Germany and stored in modified Barth's medium (composition in mM: NaCl 88, KCl 1, NaHCO3 2.4, HEPES 10, MgSO4 0.82, CaNO3 0.33, CaCl2 0.33, pH=7.5) at 20° C. until the experiment.
Oocytes were plated in 96-well plates for microinjection using the Roboinject automated instrument (MultiChannelSystems, Reutlingen, Germany). Approximately 50 nL of an aqueous solution containing the RNA transcripts for the subunits of the desired GABAA receptor subtype was injected into each oocyte. […] Oocytes were kept in modified Barth's medium (composition in mM: NaCl 88, KCl 1, NaHCO3 […], HEPES 10, MgSO4 0.82, CaNO3 0.33, CaCl2 0.33, pH=7.5) at 20° C. until the experiment.
Electrophysiological experiments were performed using the Roboocyte instrument (MultiChannelSystems, Reutlingen, Germany) on days 3 to 5 after the micro-injection of mRNA. During the experiment the oocytes were constantly superfused by a solution containing (in mM) NaCl 90, KCl 1, HEPES 5, MgCl2 1 CaCl2 1 (pH 7.4). Oocytes were impaled by two glass microelectrodes (resistance: 0.5-0.8 MΩ) which were filled with a solution containing KCl 1M+K-acetate 1.5 M and voltage-clamped to −80 mV. The recordings were performed at room temperature using the Roboocyte two-electrode voltage clamp system (Multichannelsystem). After an initial equilibration period of 1.5 min GABA was added for 1.5 min at a concentration evoking approximately 20% of a maximal current response (EC20). After another rest interval of 2.5 min GABA was again added evoking a response of similar amplitude and shape. […] Current traces were recorded at a digitization rate of 10 Hz during and shortly before and after the GABA application.
Each compound and concentration was tested on at least 3 oocytes. Different oocytes were used for different compound concentrations.
For the analysis, the digitized current traces of the first and second GABA response were superimposed and, if necessary, rescaled to equal maximal amplitudes. The ratio between the two responses during the time interval of test compound application was calculated point by point. The extremum of the resulting “ratio trace” was taken as the efficacy (“Fold increase”) of the compound expressed as “% modulation of GABA EC20” (100*(Fold increase−1)).

[2] = target: human GABAA α1β3γ2 receptor (Homo sapiens (Human), UniProt P14867+P18507); assay: Radioligand binding assay, [3H]Flumazenil competition, γ2-containing GABAA subtypes
Protocol: The affinity of compounds at GABAA γ2 subunit-containing receptors was measured by competition for [^3H]Flumazenil (81.1 Ci/mmol; Roche) binding to HEK293F cells expressing human (transiently transfected) receptors of composition α1β3γ2.
Harvested pellets from HEK293F cells expressing the different GABAA γ2 receptor subtypes were resuspended in Mannitol Buffer pH 7.2-7.4 and processed as described above for the cells expressing the GABAA γ1 subunit-containing receptors.
Assays were incubated to equilibrium for 1 hour at 4° C. and harvested onto GF/C uni-filters (Packard) by filtration using a Packard harvester and washing with ice-cold wash buffer (50 mM Tris; pH 7.5). After drying, filter-retained radioactivity was detected by liquid scintillation counting. Ki values were calculated using Exel-Fit (Microsoft) and are the means of two determinations.

Structure (SMILES) | γ2/γ1 Selectivity Ratio [1] | LogSel [1] | Efficacy (GABA)% (h-GABA-A α2β2γ1; % modulation of GABA EC20 = 100*(Fold increase−1), compound at 30-fold Ki) | potentiation of the GABA-induced current in α2βγ1 GABAA receptor subtype expressing oocytes (h-GABA-A α2β2γ1) | Ki [1] | Ki [2]
Cc1nnc2n1-c1ccc(Cl)cc1C(c1ccccc1)=NC2 [Alprazolam, reference compound] | 0.0050 | −2.3 |  |  |  | 
Clc1ccc2c(c1)C(c1ccccc1)=NCc1nncn1-2 [Estazolam, reference compound] | 0.0089 | −2.0 |  |  |  | 
CCc1nnc2n1-c1ccc(C(F)(F)F)c(Cl)c1C(c1c(F)cccc1F)=N[C@H]2C [Example 108, (4S)-7-chloro-6-(2,6-difluorophenyl)-1-ethyl-4-methyl-8-(trifluoromethyl)-4H-[1,2,4]triazolo[4,3-a][1,4]benzodiazepine] | 50.4 |  | 94% |  |  | 
CN1C(=O)CN=C(c2ccccc2F)c2cc([N+](=O)[O-])ccc21 [Flunitrazepam, reference compound] |  |  |  | ~60% |  | 
Cc1ncc2n1-c1ccc(Cl)cc1C(c1ccccc1F)=NC2 [Midazolam, reference compound] | 0.0068 | −2.2 |  | ~60% |  | 
Cc1nnc2n1-c1ccc(Br)cc1C(c1c(F)cccc1F)=NC2 [RE-A, 8-bromo-6-(2,6-difluorophenyl)-1-methyl-4H-[1,2,4]triazolo[4,3-a][1,4]benzodiazepine, reference compound] | 0.18 | −0.74 |  |  |  | 
Cc1nnc2n1-c1ccc(C(F)(F)F)cc1C(c1c(F)cccc1F)=NC2 [RE-B, 6-(2,6-difluorophenyl)-1-methyl-8-(trifluoromethyl)-4H-[1,2,4]triazolo[4,3-a][1,4]benzodiazepine, reference compound] | 0.23 | −0.64 |  |  |  | 
Cc1nnc2n1-c1ccccc1C(c1c(F)cccc1F)=NC2 [RE-C, 6-(2,6-difluorophenyl)-1-methyl-4H-[1,2,4]triazolo[4,3-a][1,4]benzodiazepine, reference compound] | 0.0092 | −2.0 |  |  |  | 
Cc1nnc2n1-c1cccc(Cl)c1C(c1c(F)cccc1F)=N[C@H]2C [RE-D, (4S)-7-chloro-6-(2,6-difluorophenyl)-1,4-dimethyl-4H-[1,2,4]triazolo[4,3-a][1,4]benzodiazepine, reference compound] | 2.215 | 0.35 |  |  | 454 nM | 1010 nM
Cc1nnc2n1-c1ccc(Cl)cc1C(c1ccccc1Cl)=NC2 [Triazolam, reference compound] |  | −1.5 |  | ~60% |  | 

— US20240002393A1, “SUBSTITUTED BENZO[f][l ,2,4JTRIAZOL0[4,3-a][l ,4J[…] GABA A GAMMA! POSITIVE ALLOSTERIC MODULATORS” (Hoffmann-La Roche Inc., priority 2020, published 2024)
